We go through 2 molecules from patent publication USRE36187E, “Acyclic pyrrolo [2,3-d]pyrimidine analogs as antiviral agents” (The Regents of the University of Michigan, priority 1994, dated 1999).

Bounds are passed on as bounds.

The test system of series [1] is HCMV. In words: HCMV plaque (focus) reduction assay in HFF cells. The class given is cell-based, human cytomegalovirus (Towne strain). The note with it: in words. As to the method:
The 148 strain of HSV-1 was used in most experiments and was provided by Dr. T. W. Schafer of Schering Corporation. The HF strain of HSV-1 was used in selected experiments and was obtained from Dr. G. H. Cohen, University of Pennsylvania. The Towne strain, plaque-purified isolate Po, of HCMV was a gift of Dr. Mark Stinski, University of Iowa.
Stock HCMV was prepared by infecting HFF cells at a multiplicity of infection (m.o.i.) of less than 0.01 plaque-forming units (p.f.u.) per cell. Cell growth medium was changed every four days until cytopathology was evident in all cells (approximately 21 days). Supernatant fluids were retained as the virus stock. Four days later, the remaining cells were disrupted by three cycles of freeze-thawing and the cell plus medium held as an additional source of virus. Storage was in liquid nitrogen.
HCMV was titered in 24-well cluster dishes which were planted to contain 5×10^4 HFF cells/well, grown as described above. When the cells were 70 to 80% confluent, 0.2 ml of the virus suspension was added per wall and adsorbed as described above. At least three ten-fold dilutions of each preparation were used. Following virus adsorption, the cell sheets were overlayed with 0.5% methocel (4000 CPS) in maintenance medium [(MEM) with 1.1 gm/liter NaHCO3, 100 units/ml penicillin G, 100 μg/ml streptomycin, and 5% fetal bovine serum]. The cultures were incubated in a humidified atmosphere of 4% CO2 -96% air. Viral foci were visible 5 to 7 days after infection using at least 10-fold magnification. Cells were fixed and stained by a 10-minute exposure to a 0.1% solution of crystal violet in 20% methanol 7 to 12 days after infection. Microscopic foci were enumerated at 20-fold magnification using a Nikon Profile Projector.
The effect of compounds of the replication of HCMV has been measured using both a plaque (focus) reduction assay and a titer (yield) reduction assay. For the former, HFF cells in 24-well culture dishes were infected with approximately 50 p.f.u. of HCMV per well using the procedures detailed above. Compounds dissolved in growth medium were added in three to six selected concentrations to triplicate wells following virus adsorption. Following incubation at 37° C. for 7 to 10 days, cell sheets were fixed, stained and microscopic foci were enumerated as described above. Drug effects were calculated as a percentage of reduction in number of foci in the presence of each drug concentration compared to the number observed in the absence of drug. DHPG (ganciclovir) was used as a positive control in all experiments.
Dose-response relationships were used to compare drug effects. These were constructed by linearly regressing the percent inhibition of parameters derived in the preceding sections against log drug concentrations. The 50% inhibitory (I50) concentrations were calculated from the regression lines using the methods described by Goldstein. See Goldstein, A., Biostatistics: An Introductory Text, MacMillan, N.Y., 1964, pp. 156-161. Along with the I50 concentration for visual cytotoxicity, the averaged I50 concentrations are compared to I50 concentrations for inhibition for HCMV or HSV-1 replication. Compounds for which the ratio of cytotoxicity I50 concentrations to antiviral I50 concentrations (in vitro therapeutic index) were greater than 10, were considered for further study.

A short description of series [2]: Visual cytotoxicity in BSC-1 cells. The format is cell-based, African green monkey. Conditions: monkey, visual cytotoxicity at time of HSV-1 plaque enumeration, read-out: 50% Inhibitory Concentration, Cytotoxicity BSC. The text has this:
Cytotoxicity produced in HFF and BSC-1 cells was estimated by visual scoring of cells not affected by virus infection in the HCMV and HSV-1 plaque reduction assays. Cytopathology was estimated at 35- and 60-fold magnification and scored on a zero to four plus basis. Wells were scored on the day of staining.

The subject of series [3] is HCMV DNA synthesis. In words: HCMV DNA synthesis by dot-blot hybridization. The format is cell-based, human cytomegalovirus. The note with it: Human betaherpesvirus 5; Table 2; read-out: 50% Inhibitory Concentration, HCMV DNA Synthesis. Here is the method: The amount of HCMV DNA synthesis was determined in two types of experiments: (a) as an integral part of HCMV titer (yield) reduction experiments and (b) as separate experiments to determine only the amount of viral DNA synthesis in the absence or presence of test compounds.
HFF cells were planted in 25 cm^2 flasks and infected with HCMV as described in part 2 and incubated at 37° C. Before harvesting at selected times by the addition of 0.1 volume of 0.2M EDTA, an aliquot of medium was removed for determination of HCMV titer. After harvesting cells into the medium, aliquots were retained for determination of HCMV DNA by hybridization.
HFF cells were planted in 96-well cluster plates at 20,000 cell/well in 200 μl of growth medium [MEM(E)] with 1.1 gm/liter NaHCO3 and 10% fetal bovine serum. […]
Following hybridization, the membrane was washed sequentially in 100 ml 2×SSC at room temperature twice each for 5 minutes, 100 ml 2×SCC plus 1% SDS at 65° C. twice each for 30 minutes and then 100 ml 0.1×SSC at room temperature twice each for 30 minute. The membrane was dried at room temperature and each filtration spot was cut from the membrane and placed into 4 ml of toluene/DPO scintillant and hybridized label counted in a liquid scintillation spectrometer.

For series [4], the system named is MCMV. In words: Mortality of mice infected with murine cytomegalovirus. The format is in vivo. As to the method:
Compound UMJD 183 was tested in mice infected with murine cytomegalovirus (MCMV). This animal model has been recognized as having capabilities predictive of efficacy in humans.
Compound UMJD 183 and the drug ganciclovir (DHPG) were administered to groups of 15 mice each at doses and times of administration shown in Table 3. Each compound at all doses was administered intraperitoneally twice daily for five days beginning at either 6, 24 or 48 hours after virus inoculation. Animals were observed daily and the number dying each day recorded.
^a Animlas were treated i.p. twice daily for 5 days with the doses
stated above. Treatment was initiated at the times indicated following

[5] abbreviates: 0.6 mg/kg i.p. twice daily, from 6 h.
The mark [6] stands for this setting: 0.6 mg/kg i.p. twice daily, from 24 h.
Setting [7] is: 0.6 mg/kg i.p. twice daily, from 48 h.
Setting [8] is: 1.9 mg/kg i.p. twice daily, from 6 h.
The mark [9] stands for this setting: 1.9 mg/kg i.p. twice daily, from 24 h.
Where [10] appears, read: 1.9 mg/kg i.p. twice daily, from 48 h.
Setting [11] is: 5.6 mg/kg i.p. twice daily, from 6 h.
[12] abbreviates: 5.6 mg/kg i.p. twice daily, from 24 h.
Setting [13] is: 5.6 mg/kg i.p. twice daily, from 48 h.
[14] abbreviates: 16.7 mg/kg i.p. twice daily, from 6 h.
Where [15] appears, read: 16.7 mg/kg i.p. twice daily, from 24 h.
[16] abbreviates: 16.7 mg/kg i.p. twice daily, from 48 h.

As for `Nc1nc2c(ncn2COCCO)c(=O)[nH]1` [Acyclovir, reference compound], the “activity against HCMV” value in series [1] is “only modest activity against HCMV”. Further, in series [2], the CC50 is above 100 µM.
As for `Nc1nc(O)c2ncn(COC(CO)CO)c2n1` [Ganciclovir (DHPG), reference compound], the IC50 in series [3] stood at 1.2 µM. For the same molecule, the “MDD (Mean Day of Death)” value in series [4] (setting [5]) is reported as 4.6; in series [4] (setting [6]), 5.4; in series [4] (setting [7]), 5.3; in series [4] (setting [8]), 5.4; in series [4] (setting [9]) it was 4.9; in series [4] (setting [10]), 4.9. For the same molecule, the “MDD (Mean Day of Death)” value amounted to 4.2 in series [4] (setting [11]); 5.3 in series [4] (setting [12]); 5.5 in series [4] (setting [13]); 3.8 in series [4] (setting [14]); 5.3 in series [4] (setting [15]); 5.5 in series [4] (setting [16]). Besides, the “Mortality Percent” value in series [4] (setting [5]) is listed as 93%; in series [4] (setting [6]) it was 80%; in series [4] (setting [7]) it was 93%; in series [4] (setting [8]), 33%; in series [4] (setting [9]), 80%; in series [4] (setting [10]), 73%. Moreover, the “Mortality Percent” value in series [4] (setting [11]) is 33%; in series [4] (setting [12]), 47%; in series [4] (setting [13]), 67%; in series [4] (setting [14]), 27%; in series [4] (setting [15]), 47%; in series [4] (setting [16]), 53%. For the same molecule, the CC50 in series [2] is above 100 µM.
